In article PMC4872165, “Targeting human respiratory syncytial virus transcription anti-termination factor M2-1 to inhibit in vivo viral replication” (Scientific Reports, 2016):

Molecular target: T1, hRSV RNA-dependent RNA polymerase (RdRp) complex with M2-1 (L, P, N, M2-1 minigenome) (Human respiratory syncytial virus A2, UniProt P04545)
T1 construct: pN, pP, pL and pM2-1 plasmids (T7 promoter) in BSR-T7/5 (BHK-21) cells with pM/Luc minigenome; strain printed for the virus only, not for the plasmids; M2-1 tetrameric; with RNA-directed RNA polymerase L; Phosphoprotein; Nucleoprotein
T1 sequence (P04545 whole entry, looked up, one chain of several): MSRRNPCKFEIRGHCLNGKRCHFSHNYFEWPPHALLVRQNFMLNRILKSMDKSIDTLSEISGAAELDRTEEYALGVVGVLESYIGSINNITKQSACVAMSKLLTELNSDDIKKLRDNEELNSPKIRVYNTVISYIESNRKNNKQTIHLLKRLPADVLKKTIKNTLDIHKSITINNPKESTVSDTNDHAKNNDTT
Assay: hRSV minigenome luciferase reporter assay in transfected BSR-T7/[…] cells
Assay type: cell-based

CC1=C2C[C@H]3[C@@H](CC=C4C[C@@H](O)CC[C@@]43C)[C@@H]2CC[C@]12O[C@@H]1C[C@H](C)CN[C@H]1[C@H]2C [cyclopamine]
IC50: 380 nM
